Test results reported in patent US8063088B2 (Hoffmann-La Roche Inc., priority 2008, dated 2011).

Legend:
[1] = target: T1, human LXR alpha (Homo sapiens, UniProt Q13133); assay: Radioligand binding assay (SPA), LXR alpha LBD; details: radioligand displacement, LXRα-LBD on SPA beads; read-out: LXRalpha Binding IC50
T1 construct: human LXR alpha (aa 164 to 447); unspecified tag ('tagged versions'); made in house; host or cells: E. coli BL21 (pLysS)
T1 sequence (Q13133 164-447): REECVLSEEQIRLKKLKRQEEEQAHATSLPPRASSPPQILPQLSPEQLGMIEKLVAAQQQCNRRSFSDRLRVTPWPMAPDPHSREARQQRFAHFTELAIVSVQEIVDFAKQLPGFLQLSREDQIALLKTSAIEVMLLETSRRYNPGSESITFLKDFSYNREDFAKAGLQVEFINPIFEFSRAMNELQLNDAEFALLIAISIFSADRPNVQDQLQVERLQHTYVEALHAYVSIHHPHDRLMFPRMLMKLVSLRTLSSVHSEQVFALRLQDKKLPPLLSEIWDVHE
Experimental: (§1) The following tests were carried out in order to determine the activity of the compounds of the present invention. Background information on the performed assays can be found in: Nichols J S et al. “Development of a scintillation proximity assay for peroxisome proliferator-activated receptor gamma ligand binding domain”, Anal Biochem. 1998, 257: 112-119.
(§2) Mammalian expression vectors were constructed to express full-length human LXR alpha and LXR beta. Bacterial expression vectors were constructed to produce tagged versions of the ligand binding domains (LBD) of human LXR alpha (aa 164 to 447) and human LXR beta (aa 155 to 460). To accomplish this, the portions of the sequences encoding the LBDs were amplified from the full-length clones by PCR and then subcloned into the plasmid vectors. Final clones were verified by DNA sequence analysis (Willy et al., Genes Dev. 1995, 9:1033-45; Song et al., Proc Natl Acad Sci USA. 1994, 91:10809-13).
(§3) Induction, expression, and purification of LBD proteins were performed in E. coli strain BL21 (pLysS) cells by standard methods (Ref: Current Protocols in Molecular Biology, Wiley Press, edited by Ausubel et al).
(§4) Radioligand Binding Assay
(§5) LXR alpha and LXR beta receptor binding were assayed in buffer consisting of 50 mM HEPES, pH 7.4, 10 mM NaCl, 5 mM MgCl2. For each 96-well reaction, 500 ng of LXRα-LBD or 700 ng of LXR beta-LBD proteins were bound to 80 μg or 40 μg SPA beads respectively, in a final volume of 50 μl by shaking. The resulting slurry was incubated for 1 h at RT and centrifuged for 2 min at 1300×g. The supernatant containing unbound protein was removed, and the semi-dry pellet containing the receptor-coated beads was re-suspended in 50 μl of buffer. Radioligand (eg. 100,000 dpm of (N-(2,2,2-trifluoroethyl)-N-[4-(2,2,2-trifluoro-1-hydroxy-1-trifluoromethylethyl)-phenyl]-benzenesulfonamide)) was added, and the reaction incubated at RT for 1 h in the presence of test compounds, and then scintillation proximity counting was performed. All binding assays were performed in 96-well plates and the amount of bound ligand was measured on a Packard TopCount using OptiPlates (Packard). Dose response curves were measured within a range of concentration from 10^−10 M to 10^−4 M.

[2] = target: T2, human LXR beta (Homo sapiens, UniProt P55055); assay: Radioligand binding assay (SPA), LXR beta LBD; details: radioligand displacement, LXR beta-LBD on SPA beads; read-out: LXRbeta Binding IC50
T2 construct: human LXR beta (aa 155 to 460); unspecified tag ('tagged versions'); made in house; host or cells: E. coli BL21 (pLysS)
T2 sequence (P55055 155-460): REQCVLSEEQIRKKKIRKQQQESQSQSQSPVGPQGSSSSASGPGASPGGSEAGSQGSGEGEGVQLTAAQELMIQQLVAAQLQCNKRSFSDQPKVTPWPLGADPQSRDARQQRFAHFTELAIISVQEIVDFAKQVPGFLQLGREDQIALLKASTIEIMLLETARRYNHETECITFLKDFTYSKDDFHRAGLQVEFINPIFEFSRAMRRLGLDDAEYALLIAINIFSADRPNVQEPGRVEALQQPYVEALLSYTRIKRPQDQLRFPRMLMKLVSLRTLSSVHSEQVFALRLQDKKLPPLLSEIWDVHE
Experimental: as §1, §2, §3, §4, §5

IC50 [1] [µM]	IC50 [2] [µM]	SMILES
5.53	0.355	Cc1ccccc1N1CCN(C(=O)OC(C)(C)C)CC1c1cccc(-c2cccc(S(C)(=O)=O)c2)c1 (stereo not drawn) [Example 48, 3-(3′-Methanesulfonyl-biphenyl-3-yl)-4-o-tolyl-piperazine-1-carboxylic acid tert-butyl ester]
8.88	3.75	Cc1ccccc1N1CCN(C(=O)OC(C)(C)C)CC1c1cccc(-c2cncc(S(C)(=O)=O)c2)c1 (stereo not drawn) [Example 49, 3-[3-(5-Methanesulfonyl-pyridin-3-yl)-phenyl]-4-o-tolyl-piperazine-1-carboxylic acid tert-butyl ester]
12.3	0.165	Cc1ccccc1N1CCN(S(=O)(=O)c2ccccc2)CC1c1cccc(-c2cccc(S(C)(=O)=O)c2)c1 (stereo not drawn) [Example 50, 4-Benzenesulfonyl-2-(3′-methanesulfonyl-biphenyl-3-yl)-1-o-tolyl-piperazine]
